In PMC8626775, “Anti-schistosomal activities of quinoxaline-containing compounds: From hit identification to lead optimisation” (European Journal of Medicinal Chemistry, 2021):
Read-outs that look alike come from different tables or passages of the source.

What was measured:
S. mansoni schistosomula = S. mansoni schistosomula high-throughput phenotype and motility screen (Roboworm), 72 h; assay type: cell-based, Schistosoma mansoni; conditions: for EC50: Schistosoma mansoni; for Effect on phenotype and motility of S. mansoni schistosomula: primary tested concentrations 10 and 50 μM
Method: Cercariae derived from the NMRI ([…]) Puerto Rican strain (PR-1) of S. mansoni were shed from two Biomphalaria glabrata strains, the NMRI albino and pigmented outbred strains, under intensified lighting conditions (1 h of incubation at 26 °C). Cercariae were then mechanically transformed into schistosomula as previously described.
High-throughput screening (HTS) of selected compounds was conducted as previously described. Briefly, newly transformed schistosomula were distributed in a 384-well tissue culture plate (PerkinElmer, cat 6007460, seeding density of 120 parasites/well). Each compound (at a single concentration or two-fold titrations) was transferred into individual wells alongside the positive and negative controls (AUR at 10 μM final concentration in 0.625% DMSO and 0.625% DMSO, respectively). Schistosomula/compound co-cultures were then incubated at 37 °C for 72 h in a humidified atmosphere containing 5% CO2. Following the co-culture period, automatic assessment of compound-induced schistosomula motility and phenotypic changes were conducted with the high-content imaging platform Roboworm using the image analysis model previously described by Paveley et al..

S. mansoni adult worms = experiment: S. mansoni adult worm motility screen (WormassayGP2), 72 h; assay type: cell-based, Schistosoma mansoni; conditions: for EC50: Schistosoma mansoni
From the text: Mice (Mus musculus HsdOLa:TO - Tuck Ordinary; Envigo, UK) were used for the mammalian-specific propagation of the S. mansoni life cycle. Experimental animals were infected with 4000 or 180 S. mansoni cercariae/mouse and perfused three- or seven-weeks post-infection to obtain S. mansoni juvenile or adult worms, respectively. Preparation steps following perfusion have been described previously. Briefly, the parasite material was washed three times with pre-warmed adult worm media (DMEM (Gibco, Paisley, UK) supplemented with 10% (v/v) Fetal Calf Serum (FCS, Gibco, Paisley, UK), 1% (v/v) L-glutamine (Gibco, Paisley, UK) and an antibiotic mixture (150 Units/ml penicillin and 150 μg/ml streptomycin; Gibco, UK)) to remove residual host contamination and incubated in a humidified environment containing 5% CO2 at 37 °C for at least 1 h.
For the evaluation of anti-schistosomal activity on the adult stage of the parasite, 7-wk old worms were transferred into 48 well tissue culture plates (1–3 worm pairs/well, in duplicate). […] DMSO (0.5%) and praziquantel (10 μM in 0.5% DMSO) were also included as negative and positive control treatments. Treated adult worms were incubated for 72 h in a humidified environment containing 5% CO2 at 37 °C. Parasite motility after compound treatment was assessed by a digital image processing-based system (WormassayGP2), modified after Wormassay. Following compound-parasite co-incubation, eggs were collected, fixed in formalin (10% v/v formaldehyde) and enumerated aiming to collect further information on any compound-induced effects on parasite fecundity and IVLE production.

[1] = 72 h, Table 1, 72 h, two dose response titrations (0.313–10 μM), 95% CI in brackets, read-out: Activity on schistosomula (EC50, μM - 72 h) Motility
[2] = 72 h, Table 1, 72 h, two dose response titrations (0.313–10 μM), 95% CI in brackets, read-out: Activity on schistosomula (EC50, μM - 72 h) Phenotype
[3] = 72 h, Table 1, mean of phenotype and motility EC50, 72 h, read-out: Activity on schistosomula (EC50, μM - 72 h) Average
[4] = Fig. S3, average schistosomula EC50, read-out: EC50 (Fig. S3, anti-schistosomula activity)
[5] = 72 h, Table 2, motility, 72 h, three replicate titrations (0.313–10 μM), read-out: Activity on schistosomula (EC50, μM - 72 h) M
[6] = 72 h, Table 2, phenotype, 72 h, three replicate titrations (0.313–10 μM), read-out: Activity on schistosomula (EC50, μM - 72 h) P
[7] = 72 h, Table S7, motility, 95% CI in brackets, read-out: Activity on schistosomula (EC50, µM - 72 h) (95% CI) M
[8] = 72 h, Table S7, phenotype, 95% CI in brackets, read-out: Activity on schistosomula (EC50, µM - 72 h) (95% CI) P
[9] = Table 3, read-out: Anti-schistosomal activity EC50 (μM) Schistosomula Motility
[10] = Table 3, read-out: Anti-schistosomal activity EC50 (μM) Schistosomula Phenotype

Row | SMILES | EC50 (S. mansoni schistosomula; [1]) [µM] | EC50 (S. mansoni schistosomula; [2]) [µM] | EC50 (S. mansoni schistosomula; [4]) [µM] | Effect on phenotype and motility of S. mansoni schistosomula (S. mansoni schistosomula; 72 h) | further results
1 | Cc1cccc(Nc2nc3ccc([N+](=O)[O-])cc3nc2Nc2cccc(C)c2)c1 [Compound 20] | 1.23 | 1.62 | – | – | Activity on schistosomula in the primary screen at 10 μM (S. mansoni schistosomula; 72 h): retained activity; EC50 (S. mansoni schistosomula; [3]): 1.42 µM; Effect on adult worm motility at 12.5 and 6.25 μM (S. mansoni adult worms; 12.5 and 6.25 μM): particularly active
2 | Cc1ccc(/N=c2\[nH]c3ccccc3s\c2=N\c2ccc(C)cc2)cc1 [Compound 2] | > 50 | > 50 | > 50 | did not have any effect | –
3 | O=C(Nc1ccc2nc(Nc3ccc(Cl)c(Cl)c3)c(Nc3ccc(Cl)c(Cl)c3)nc2c1)c1cccc(C(F)(F)F)c1 [Compound 22g, N-(2,3-bis((3,4-dichlorophenyl)amino)quinoxalin-6-yl)-3-(trifluoromethyl)benzamide] | – | – | – | – | EC50 (S. mansoni schistosomula; [5]): > 50 µM; EC50 (S. mansoni schistosomula; [6]): > 50 µM; EC50 (S. mansoni schistosomula; [7]): > 50 µM; EC50 (S. mansoni schistosomula; [8]): > 50 µM; EC50 (S. mansoni schistosomula; Table 5, Series C, read-out: Anti-schistosomal activity EC50 Schistosomula (μM) Motility): > 50 µM; EC50 (S. mansoni schistosomula; Table 5, Series C, read-out: Anti-schistosomal activity EC50 Schistosomula (μM) Phenotype): > 50 µM
4 | COc1ccc2nc(Nc3ccccc3)c(Nc3ccccc3)nc2c1 [Compound 6] | > 10 | > 10 | > 10 | weak effect | –
5 | O=[N+]([O-])c1ccc2nc(NCCc3ccccc3)c(NCCc3ccccc3)nc2c1 [Compound 37, 6-nitro-N2, N3-diphenethylquinoxaline-2,3-diamine] | – | – | – | – | EC50 (S. mansoni schistosomula; 72 h, Table 2, average of phenotype and motility EC50, 72 h, read-out: Activity on schistosomula (EC50, μM - 72 h) Average): 1.84 µM; EC50 (S. mansoni schistosomula; [5]): 1.47 µM; EC50 (S. mansoni schistosomula; [6]): 2.2 µM; EC50 (S. mansoni schistosomula; [9]): 1.47 µM; EC50 (S. mansoni schistosomula; [10]): 2.2 µM; EC50 (S. mansoni adult worms; Table 3, read-out: Anti-schistosomal activity EC50 (μM) Adult Motility): 0.195 µM; EC50 (S. mansoni adult worms; Table 2, 72 h, titrations 0.0095–5 μM, WormassayGP2, read-out: Activity on adult worms (EC50, μM - 72 h) Motility): 0.195 µM
6 | Cc1ccc(Nc2nc3ccccc3nc2Nc2ccc(C)cc2)cc1 [Compound 15] | > 10 | > 10 | > 10 | weak effect | –
7 | O=[N+]([O-])c1ccc2nc(Cl)c(Cl)nc2c1 [2,3-dichloro-6-nitroquinoxaline] | – | – | – | – | EC50 (S. mansoni schistosomula; [5]): > 10 µM; EC50 (S. mansoni schistosomula; [6]): > 10 µM; EC50 (S. mansoni schistosomula; [7]): > 10 µM; EC50 (S. mansoni schistosomula; [8]): > 10 µM; EC50 (S. mansoni schistosomula; [9]): > 10 µM; EC50 (S. mansoni schistosomula; [10]): > 10 µM
8 | O=C(O)C=Cc1cccc(Nc2nc3ccc([N+](=O)[O-])cc3nc2Nc2cccc(C=CC(=O)O)c2)c1 [Compound 24] | > 10 | > 10 | – | weak effect | –
9 | CCOc1ccc(Nc2nc3ccccc3nc2Nc2ccc(OCC)cc2)cc1 [Compound 9] | 4.87 | 5.92 | – | – | Activity on schistosomula in the primary screen at 10 μM (S. mansoni schistosomula; 72 h): retained activity; EC50 (S. mansoni schistosomula; [3]): 5.39 µM

Further lines, with some results ahead:

Row | EC50 (S. mansoni schistosomula; [1]) [µM] | EC50 (S. mansoni schistosomula; [2]) [µM] | EC50 (S. mansoni schistosomula; [4]) [µM] | SMILES | Effect on phenotype and motility of S. mansoni schistosomula (S. mansoni schistosomula; 72 h) | further results
10 | > 10 | > 10 | – | c1ccc(-c2nc3ccccc3nc2-c2ccccc2)cc1 [Compound 18] | weak effect | –
11 | > 50 | > 50 | > 50 | COc1ccc(OC)c(Nc2nc3ccccc3nc2Nc2cc(OC)ccc2OC)c1 [Compound 8] | did not have any effect | –
12 | 5.83 | 5.12 | – | CCOC(=O)c1ccc(Nc2nc3ccccc3nc2Nc2ccc(C(=O)OCC)cc2)cc1 [Compound 10] | – | Activity on schistosomula in the primary screen at 10 μM (S. mansoni schistosomula; 72 h): retained activity; EC50 (S. mansoni schistosomula; [3]): 5.47 µM
13 | > 10 | > 10 | > 10 | FC(F)(F)c1cccc(Oc2nc3ccccc3nc2Oc2cccc(C(F)(F)F)c2)c1 [Compound 12] | weak effect | –
